For assay [1], the target named is T1, SYK (Homo sapiens, UniProt P43405).
T1 construct: Recombinant proteins SYK FL was produced at NMS via baculo virus infection in insect cells; His; GST; made in house; host or cells: insect cells (baculovirus)
In words: Biochemical kinase inhibition assay on SYK, ADPGlo assay format. The settings on record: Table A, pre-activated SYK 0.6 nM, ATP 60 μM, BioDBn*327 125 μM, 60 minutes at room temperature. For orientation: In ADP-Glo the light output rises with the ADP produced.

The target in assay [2] is T1, SYK. The experiment in a line: Biochemical kinase inhibition assay on SYK, KinaseGlo assay format. Conditions: Table A; KinaseGlo format, pre-activated SYK 2.5 nM, ATP 2.5 μM, substrate BioDBn*327 125 uM, 60 minutes at rt; read-out: IC50 (μM) Kglo.

Turning to `COc1cc(F)cc(Nc2nccc(-c3cc(C(=O)N[C@@H](C)CN(C)C)n(C)n3)n2)c1` [Example 65, N-[(2S)-1-(dimethylamino)propan-2-yl]-3-{2-[(3-fluoro-5-methoxyphenyl)amino]pyrimidin-4-yl}-1-methyl-1H-pyrazole-5-carboxamide], the IC50 (usually the concentration that gives 50% inhibition) turned out to be 0.038 µM against SYK [1] and 0.009 µM at SYK [2].

In the case of `COc1cc(Nc2nccc(-c3cc(C(=O)N[C@@H](C)CN(C)C)n(C)n3)n2)cc(OC)c1` [Example 67, 3-{2-[(3,5-dimethoxyphenyl)amino]pyrimidin-4-yl}-N-[(2S)-1-(dimethylamino)propan-2-yl]-1-methyl-1H-pyrazole-5-carboxamide], the figures for the 50% inhibitory concentration (IC50) against SYK [1] and on SYK [2] were 0.014 µM and less than 0.004 µM, respectively.

Take `COc1cc(Nc2nccc(-c3cc(C(=O)N[C@@H](C)CN4CCCC4)n(C)n3)n2)cc(OC)c1` [Example 69, 3-{2-[(3,5-dimethoxyphenyl)amino]pyrimidin-4-yl}-1-methyl-N-[(2S)-1-(pyrrolidin-1-yl)propan-2-yl]-1H-pyrazole-5-carboxamide]: the IC50 on SYK [1] was determined as 0.01 µM; at SYK [2], 0.008 µM.

As for `COc1cc(Nc2nccc(-c3cc(C(=O)NCCN(C)C)n(C)n3)n2)cc(OC)c1` [Example 72, 3-{2-[(3,5-dimethoxyphenyl)amino]pyrimidin-4-yl}-N-[2-(dimethylamino)ethyl]-1-methyl-1H-pyrazole-5-carboxamide], the figures for the IC50 on SYK [1] and at SYK [2] were 0.087 µM and 0.034 µM, respectively.

Regarding `C[C@@H](CN(C)C)NC(=O)c1cc(-c2ccnc(Nc3cnn(C)c3)n2)nn1C` [Example 75, N-[(2S)-1-(dimethylamino)propan-2-yl]-1-methyl-3-{2-[(1-methyl-1H-pyrazol-4-yl)amino]pyrimidin-4-yl}-1H-pyrazole-5-carboxamide], the IC50 was determined as 0.473 µM against SYK [1] and 0.273 µM on SYK [2].

Regarding `COc1cc(C#N)cc(Nc2nccc(-c3cc(C(=O)N[C@@H](C)CN(C)C)n(C)n3)n2)c1` [Example 78, 3-{2-[(3-cyano-5-methoxyphenyl)amino]pyrimidin-4-yl}-N-[(2S)-1-(dimethylamino)propan-2-yl]-1-methyl-1H-pyrazole-5-carboxamide], the figures for the IC50 against SYK [1] and at SYK [2] were 0.033 µM and 0.015 µM, respectively.

Turning to `COc1cc(C#N)cc(Nc2nccc(-c3cc(C(=O)N[C@@H](C)CN4CCC4)n(C)n3)n2)c1` [Example 79, N-[(2S)-1-(azetidin-1-yl)propan-2-yl]-3-{2-[(3-cyano-5-methoxyphenyl)amino]pyrimidin-4-yl}-1-methyl-1H-pyrazole-5-carboxamide], the IC50 was determined as 0.026 µM at SYK [1] and 0.007 µM at SYK [2].

With `COc1cncc(Nc2nccc(-c3cc(C(=O)N[C@@H](C)CN4CCC4)n(C)n3)n2)c1` [Example 80, N-[(2S)-1-(azetidin-1-yl)propan-2-yl]-3-{2-[(5-methoxypyridin-3-yl)amino]pyrimidin-4-yl}-1-methyl-1H-pyrazole-5-carboxamide], the figures for the 50% inhibitory concentration (IC50) at SYK [1] and at SYK [2] were 0.081 µM and 0.044 µM, respectively.

The record behind these values is US20240285621A1, “PYRAZOLYL-PYRIMIDINE DERIVATIVES AS KINASE INHIBITORS” (NERVIANO MEDICAL SCIENCES S.R.L., priority 2020, published 2024).
